In US9777017B2, “Tricyclic fused thiophene derivatives as JAK inhibitors” (Incyte Corporation, priority 2012, dated 2017):
Structures can show the parent of a compound that is named as a salt.

Key:
Format in all cases: biochemical
human JAK1 [1] = test: In vitro JAK kinase assay (HTRF, phosphorylation of a biotinylated peptide), JAK1; parameters: key to JAK1 IC50 (nM): +indicates an IC50 of ≦100 nM; ++indicates an IC50 of ≦1000 nM; +++indicates an IC50 of ≦2000 nM; ++++indicates an IC50 of >2000 nM; +++++indicates that the IC50 was greater than the highest concentration tested; settings: ratio of IC50s, 1 mM ATP
Method: (§1) Compounds herein were tested for inhibitory activity of JAK targets according to the following in vitro assay described in Park et al., Analytical Biochemistry 1999, 269, 94-104. The catalytic domains of human JAK1 (a.a. 837-1142), JAK2 (a.a. 828-1132) and JAK3 (a.a. 781-1124) were expressed using baculovirus in insect cells and purified. The catalytic activity of JAK1, JAK2 or JAK3 was assayed by measuring the phosphorylation of a biotinylated peptide. The phosphorylated peptide was detected by homogenous time resolved fluorescence (HTRF). IC50s of compounds were measured for each kinase in the 40 μL reactions that contain the enzyme, ATP and 500 nM peptide in 50 mM Tris (pH 7.8) buffer with 100 mM NaCl, 5 mM DTT, and 0.1 mg/mL (0.01%) BSA. For the 1 mM IC50 measurements, ATP concentration in the reactions was 1 mM. Reactions were carried out at room temperature for 1 hour and then stopped with 20 μL 45 mM EDTA, 300 nM SA-APC, 6 nM Eu-Py20 in assay buffer (Perkin Elmer, Boston, Mass.). Binding to the Europium labeled antibody took place for 40 minutes and HTRF signal was measured on a PHERA star plate reader (BMG, Cary, N.C.). The Example compounds were each tested in the Example A assay (see Table 1 for data for the compounds of the examples as tested by the assay of Example A at 1 mM ATP).

human JAK1 [2] = biological target: human JAK1 (Homo sapiens, UniProt P23458); test: as above; parameters: key to JAK1 IC50 (nM): +indicates an IC50 of ≦100 nM; ++indicates an IC50 of ≦1000 nM; +++indicates an IC50 of ≦2000 nM; ++++indicates an IC50 of >2000 nM; +++++indicates that the IC50 was greater than the highest concentration tested; settings: 1 mM ATP
Method: as §1

human JAK2 = human JAK2 (Homo sapiens (Human), UniProt O60674); test: In vitro JAK kinase assay (HTRF, phosphorylation of a biotinylated peptide), JAK2; parameters: key to JAK2 IC50 (nM): +indicates an IC50 of ≦100 nM; ++indicates an IC50 of ≦1000 nM; +++indicates an IC50 of ≦2000 nM; ++++indicates an IC50 of >2000 nM; +++++indicates that the IC50 was greater than the highest concentration tested; settings: 1 mM ATP
Method: as §1

Sequence of human JAK2 (O60674 828-1132): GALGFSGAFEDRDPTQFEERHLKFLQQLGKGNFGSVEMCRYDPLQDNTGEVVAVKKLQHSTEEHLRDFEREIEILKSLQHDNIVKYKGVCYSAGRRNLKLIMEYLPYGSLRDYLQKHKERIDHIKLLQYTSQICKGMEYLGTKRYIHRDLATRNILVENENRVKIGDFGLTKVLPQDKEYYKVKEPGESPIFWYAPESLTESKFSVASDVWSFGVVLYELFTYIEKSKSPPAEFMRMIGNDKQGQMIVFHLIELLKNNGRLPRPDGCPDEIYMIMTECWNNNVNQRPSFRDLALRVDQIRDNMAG

Compound	JAK2/JAK1 (human JAK1 [1])	IC50 (human JAK1 [2]) [nM]	IC50 (human JAK2) [nM]	JAK2 IC50 (nM) (human JAK2)	JAK1 IC50 (nM) (human JAK1 [2])
Cc1nc2cnc3ccsc3c2n1[C@@H]1CC[C@@H](CC#N)[C@@H](O)C1 (mixture of isomers) [Example 34, Mixture of [(1R,2R,4S)-2-hydroxy-4-(2-methyl-1H-imidazo[4,5-d]thieno[3,2-b]pyridin-1-yl)cyclohexyl]acetonitrile trifluoroacetate and [(1S,2S,4R)-2-hydroxy-4-(2-methyl-1H-imidazo[4,5-d]thieno[3,2-b]pyridin-1-yl)cyclohexyl]acetonitrile trifluoroacetate]	>10				
CCc1nc2cnc3ccsc3c2n1[C@H]1CC[C@H](CC#N)[C@H](O)C1 (racemic) [Example 35]		≤ 100	> 2000		
C[C@@H](O)c1nc2cnc3ccsc3c2n1C1CCNCC1F (single isomer, unassigned) [9 (2nd peak)]	>10			+++++	
C[C@@H](O)c1nc2cnc3ccsc3c2n1C1CCC(O)(CC#N)CC1 (single isomer, unassigned) [24 (first peak)]	>10	≤ 100	> 2000		
C[C@@H](O)c1nc2cnc3ccsc3c2n1C1CCC(O)(CC#N)CC1 (single isomer, unassigned) [24 (second peak)]		≤ 1000			
C[C@@H](O)c1nc2cnc3ccsc3c2n1C1CCC(NCCC#N)CC1 (single isomer, unassigned) [30 (first peak)]	>2	≤ 1000	> 2000		
C[C@@H](O)c1nc2cnc3ccsc3c2n1C1CCC(NCCC#N)CC1 (single isomer, unassigned) [30 (second peak)]	>10	≤ 2000		+++++	
N#CCC1CCC(CO)(n2cnc3cnc4ccsc4c32)CC1 (single isomer, unassigned) [72 (second peak), [4-(Hydroxymethyl)-4-(1H-imidazo[4,5-d]thieno[3,2-b]pyridin-1-yl)cyclohexyl]acetonitrile]	>5	≤ 100	≤ 1000		
C[C@@H](O)c1nc2cnc3ccsc3c2n1C1CCNCC1F (stereo partly drawn) [9 (1st peak), (1R)-1-[1-(3-Fluoropiperidin-4-yl)-1H-imidazo[4,5-d]thieno[3,2-b]pyridin-2-yl]ethanol]				+++++	+++++
C[C@@H](O)c1nc2cnc3ccsc3c2n1[C@H]1CCCOC1 [Example 1, (1R)-1-{1-[(3S)-Tetrahydro-2H-pyran-3-yl]-1H-imidazo[4,5-d]thieno[3,2-b]pyridin-2-yl}ethanol]	>3	≤ 1000		+++++	
C[C@@H](O)c1nc2cnc3ccsc3c2n1[C@H]1CC[C@H](CC#N)CC1 [Example 2, (trans-4-{2-[(1R)-1-Hydroxyethyl]-1H-imidazo[4,5-d]thieno[3,2-b]pyridin-1-yl}cyclohexyl)acetonitrile]	>10				
C[C@@H](O)c1nc2cnc3ccsc3c2n1[C@H]1CC[C@H](O)CC1 [Example 3, trans-4-{2-[(1R)-1-Hydroxyethyl]-1H-imidazo[4,5-d]thieno[3,2-b]pyridin-1-yl}cyclohexanol]	>10	≤ 1000		+++++	
C[C@@H](O)c1nc2cnc3ccsc3c2n1[C@H]1CC[C@H](NCC(F)(F)F)CC1 [Example 4, (1R)-1-(1-{trans-4-[(2,2,2-Trifluoroethyl)amino]cyclohexyl}-1H-imidazo[4,5-d]thieno[3,2-b]pyridin-2-yl)ethanol]	>10	≤ 100	≤ 2000		
C[C@@H](O)c1nc2cnc3ccsc3c2n1[C@H]1CC[C@H](CCS(C)(=O)=O)CC1 [Example 5, (1R)-1-(1-{trans-4-[2-(Methylsulfonyl)ethyl]cyclohexyl}-1H-imidazo[4,5-d]thieno[3,2-b]pyridin-2-yl)ethanol]	>10	≤ 100		+++++	
C[C@@H](O)c1nc2cnc3ccsc3c2n1[C@H]1CC[C@@H](n2cncn2)CC1 [Example 6, (1R)-1-{1-[cis-4-(1H-1,2,4-Triazol-1-yl)cyclohexyl]-1H-imidazo[4,5-d]thieno[3,2-b]pyridin-2-yl}ethanol]	>6	≤ 2000		+++++	
C[C@@H](O)c1nc2cnc3ccsc3c2n1[C@H]1CC[C@@H](C#N)CC1 [Example 7, cis-4-{2-[(1R)-1-Hydroxyethyl]-1H-imidazo[4,5-d]thieno[3,2-b]pyridin-1-yl}cyclohexanecarbonitrile]	>10	≤ 100	≤ 2000		
C[C@@H](O)c1nc2cnc3ccsc3c2n1[C@H]1CC[C@H](CCC#N)CC1 [Example 8, 3-(trans-4-{2-[(1R)-1-Hydroxyethyl]-1H-imidazo[4,5-d]thieno[3,2-b]pyridin-1-yl}cyclohexyl)propane nitrile]	>10	≤ 100	≤ 1000		
C[C@@H](O)c1nc2cnc3ccsc3c2n1[C@H]1CC[C@H](CC#N)CC1.Cl [Example 10, (trans-4-{2-[(1R)-1-Hydroxyethyl]-1H-imidazo[4,5-d]thieno[3,2-b]pyridin-1-yl}cyclohexyl)acetonitrile HCl salt]	>10	≤ 100	≤ 1000		
C[C@@H](O)c1nc2cnc3ccsc3c2n1[C@H]1CC[C@H](CO)CC1 [Example 11, (1R)-1-{1-[trans-4-(Hydroxymethyl)cyclohexyl]-1H-imidazo[4,5-d]thieno[3,2-b]pyridin-2-yl}ethanol]	>10	≤ 100		+++++	
C[C@@H](O)c1nc2cnc3ccsc3c2n1[C@H]1CC[C@H](CF)CC1 [Example 12, (1R)-1-{1-[trans-4-(Fluoromethyl)cyclohexyl]-1H-imidazo[4,5-d]thieno[3,2-b]pyridin-2-yl}ethanol]	>10	≤ 100	≤ 2000		
C[C@@H](O)c1nc2cnc3ccsc3c2n1C1CCCCC1 [Example 13, (1R)-1-(1-Cyclohexyl-1H-imidazo[4,5-d]thieno[3,2-b]pyridin-2-yl)ethanol]	>10	≤ 100	> 2000		
CNS(=O)(=O)C[C@H]1CC[C@H](n2c([C@@H](C)O)nc3cnc4ccsc4c32)CC1 [Example 14, 1-(trans-4-{2-[(1R)-1-hydroxyethyl]-1H-imidazo[4,5-d]thieno[3,2-b]pyridin-1-yl}cyclohexyl)-N-methylmethanesulfonamide]	>5	≤ 1000		+++++	
C[C@@H](O)c1nc2cnc3ccsc3c2n1C1CCN(CC(F)(F)F)CC1 [Example 15, (1R)-1-{1-[1-(2,2,2-Trifluoroethyl)piperidin-4-yl]-1H-imidazo[4,5-d]thieno[3,2-b]pyridin-2-yl}ethanol]	>9	≤ 2000		+++++	
C[C@@H](O)c1nc2cnc3ccsc3c2n1[C@H]1CCCN(C(=O)CCC(F)(F)F)C1 [Example 52, (1R)-1-{1-[(3S)-1-(4,4,4-Trifluorobutanoyl)piperidin-3-yl]-1H-imidazo[4,5-d]thieno[3,2-b]pyridin-2-yl}ethanol]	>10	≤ 1000			
Cc1nn2cnc3ccsc3c2c1[C@H]1CC[C@H](CC#N)CC1 [Example 77, [trans-4-(8-Methylpyrazolo[1,5-c]thieno[2,3-e]pyrimidin-9-yl)cyclohexyl]acetonitrile]		≤ 100	≤ 100		
[(1R,2S,4S)-4-(2-Ethyl-1H-imidazo[4,5-d]thieno[3,2-b]pyridin-1-yl)-2-hydroxycyclohexyl]acetonitrile and [(1S,2R,4R)-4-(2-ethyl-1H-imidazo[4,5-d]thieno[3,2-b]pyridin-1-yl)-2-hydroxycyclohexyl]acetonitrile [40 (second peak)]		> 2000		+++++	
[(1R,2S,4S)-4-(2-Methyl-1H-imidazo[4,5-d]thieno[3,2-b]pyridin-1-yl)-2-hydroxycyclohexyl]acetonitrile and [(1S,2R,4R)-4-(2-methyl-1H-imidazo[4,5-d]thieno[3,2-b]pyridin-1-yl)-2-hydroxycyclohexyl]acetonitrile [41 (second peak)]		> 2000		+++++	
